Data set [1] concerns rat brain microvascular endothelial cells (RBMECs). Nature of the data set: Transendothelial electrical resistance (TEER) in the BBB in vitro model. The data set is classed as cell-based. Particulars: RBMEC monolayers.
Data set [2] is described as follows: BBB in vitro model: primary culture of rat brain microvascular endothelial cells (RBMECs) on inserts, astrocyte-conditioned medium in the basal compartment. Particulars: Wistar rat, up to 25 h.
Another data set has as its system Aβ(1–16). Particulars: 1 equiv of TP; EPR; cited from earlier work. The text has this:
Although Aβ(1–X) species are the most studied, N-truncated Aβ peptides, such as Aβ(4–X) species (Figure 4A), are highly abundant Aβ isoforms detected in both healthy and AD brains.[58]−[60] Although both peptides bind Cu^2+, their coordination properties and reactivities are completely different.

Data set [3] deals with rat brain microvascular endothelial cells (RBMECs). Nature of the data set: Peptide recovery (HPLC) from apical and basal compartments of the BBB in vitro model. Particulars: peptide alone, apical administration; quantified after 8 and 25 h; HPLC-UV.
Data set [4] has the same test system.
The target of another data set is PrP(92–99) (Homo sapiens, UniProt P04156). Particulars: pH 7.4.
The next data set has as its target T1, Aβ(1–40) (Homo sapiens, UniProt P05067).
T1 construct: impact the mechanism of Cu^2+-induced aggregation of Aβ(1–40)
Particulars: cited from earlier work. The text has this: Scheme 1 TP Holds Therapeutic Potential against AD TP is a tetrapeptide with the sequence MDDWAib. The MD sequence binds Cu^2+ with high affinity (A). […] These findings support a therapeu ...

The target of the next data set is PrP(106–115) (Homo sapiens, UniProt P04156). Particulars: pH 7.4.

Residues, ends and D or L forms follow the SMILES beside them.

T1 sequence (P05067 672-711 limits assumed): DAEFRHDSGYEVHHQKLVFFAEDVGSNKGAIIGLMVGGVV

`CC(C)C[C@H](NC(=O)[C@@H](N)CCCCN)C(=O)N[C@@H](Cc1ccc(O)cc1)C(=O)O` [P10] (H-Lys-Leu-Tyr-OH): the “Decrease of TEER with respect to control monolayers” value in data set [1] (P10 alone, CellZscope continuous measurement) is “approximately 30%”; in data set [1] (P10 together with TP), “approximately 30%”.
With NH2-MDDWAib-Am, in data set [2], the cleaved bond result is on record as “Met1-Asp2, major, 3.5 h”.
As to NH2-MDDWAib-Am [TP], in the data set with Aβ(1–16), the “Removal of Cu2+ from Cu2+-Aβ(1–16)” value is “removes the metal ion”. Also, in data set [3], the “Detection in apical and basal compartments” value was “detected in the apical but not in the basal compartment”. In data set [4], the “Main degradation product in the BBB model” value is listed as “DDWAib”, the “TP degradation in the BBB model” value is listed as “rapidly degraded” and the “TP passage across the BBB model” value was “cannot cross the BBB without P10”. At PrP(92–99) (1 equiv of TP), the “Fraction of Cu2+-PrP(92–99) complex in EPR deconvolution” value is listed as 40%, the “Fraction of Cu2+-TP complex in EPR deconvolution” value is listed as 30% and the “Fraction of ternary TP-Cu2+-PrP(92–99) complex in EPR deconvolution” value worked out at 30%. On PrP(92–99) (2 equiv of TP), the “Fraction of Cu2+-TP in EPR simulation” value was 20% and the “Fraction of ternary TP-Cu2+-PrP(92–99) complex in EPR simulation” value is listed as 80%. Further, on Aβ(1–40), the “Effect on Cu2+-induced aggregation of Aβ(1–40)” value is “impacts the Cu^2+-induced aggregation of Aβ(1–40)”. In data set [1] (TP alone), the “Effect on TEER” value is listed as “no effect”. At PrP(106–115) (1 equiv of TP), the “Fraction of Cu2+-PrP(106–115) complex in EPR deconvolution” value is recorded as 30%, the “Fraction of Cu2+-TP complex in EPR deconvolution” value came to 50% and the “Fraction of ternary TP-Cu2+-PrP(106–115) complex in EPR deconvolution” value amounted to 20%. Moreover, at PrP(106–115) (2 equiv of TP), the “Fraction of Cu2+-TP in EPR simulation” value is 40% and the “Fraction of ternary TP-Cu2+-PrP(106–115) complex in EPR simulation” value is on record as 60%.

(Values after paper PMC11741003 (ACS Chemical Neuroscience, 2024).)
